System: Secretion of ApoB
Experiment: Quantification of the secretion of ApoB in HepG2 cells
Format: cell-based
Conditions: Homo sapiens, HepG2, 24 h, 24 hours of incubation with test compound, immunoprecipitation of apoB from medium, read-out: pIC50 value (=-log IC50 value), secretion of ApoB (converted)
Procedure, shortened: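 At 70% confluency, HepG2 cells in MEM with 10% FCS received compound or DMSO carrier (0.4% final) for 24 h. Secreted apoB in cleared medium immunoprecipitated with sheep anti-apoB then rabbit anti-sheep antibody (24 h each, 8° C); pellet radioactivity counted by liquid scintillation; IC50 expressed as pIC50.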

Structure (SMILES)	IC50
CCOC(=O)C(c1ccccc1)C1CCN(c2ccc(-n3ccn([C@@H](COC)c4ccccc4)c3=O)cc2)CC1 (some centres unmarked) [Compound 260]	316 to 3160 nM
CCOC(=O)C(c1ccccc1)C1CCN(c2ccc(-n3ccn([C@@H](C)C4CCCCC4)c3=O)cc2)CC1 (some centres unmarked) [Compound 261]	31.6 to 316 nM
CCOC(=O)C(c1ccccc1)C1CCN(c2ccc(-n3ccn([C@H](C)C4CCCCC4)c3=O)cc2)CC1 (some centres unmarked) [Compound 262]	31.6 to 316 nM
CCOC(=O)C(c1ccccc1)C1CCN(c2ccc(-n3ccn(C(CC)c4ccccc4)c3=O)cc2)CC1 (centres unmarked) [Compound 263]	31.6 to 316 nM
COC(=O)CC1CCN(c2ccc(-n3ccn(C(C)c4ccccc4)c3=O)cc2)CC1 (centres unmarked) [Compound 264]	316 to 3160 nM
CCOC(=O)C(c1ccccc1)N1CCN(c2ccc(-n3cnn(C(C)c4ccccc4)c3=O)cc2)CC1 (centres unmarked) [Compound 265]	316 to 3160 nM
CCOC(=O)C(c1ccccc1)N1CCN(c2ccc(-n3cnn(C(C)c4ccc(F)cc4)c3=O)cc2)CC1 (centres unmarked) [Compound 266]	316 to 3160 nM
CCOC(=O)C(c1ccccc1)N1CCC(c2ccc(-n3ccn([C@H](C)c4cccc(C(F)(F)F)c4)c3=O)cc2)CC1 (some centres unmarked) [Compound 276]	31.6 to 316 nM
CCOC(=O)C(c1ccccc1)N1CCC(c2ccc(-n3ccn([C@H](C)c4ccc(C(F)(F)F)cc4)c3=O)cc2)CC1 (some centres unmarked) [Compound 277]	31.6 to 316 nM
CCOC(=O)C(c1ccccc1)N1CCC(c2ccc(-n3ccn([C@H](C)c4ccccc4F)c3=O)cc2)CC1 (some centres unmarked) [Compound 278]	31.6 to 316 nM
CCOC(=O)C(c1ccccc1)N1CCC(c2ccc(-n3ccn([C@@H](C)c4ccccc4F)c3=O)cc2)CC1 (some centres unmarked) [Compound 279]	316 to 3160 nM
COC(=O)c1cc(NC(=O)C(c2ccccc2)N2CCN(c3ccc(-n4cnn(C(C)c5ccccc5)c4=O)cc3)CC2)ccc1C (centres unmarked) [Compound 283]	< 31.6 nM
COC(=O)c1cc(NC(=O)C(c2ccccc2)N2CCC(c3ccc(-n4cnn(C(C)c5ccccc5)c4=O)cc3)CC2)ccc1C (centres unmarked) [Compound 284]	< 31.6 nM
COC(=O)c1ccc(NC(=O)C(c2ccccc2)N2CCC(c3ccc(-n4cnn(C(C)C)c4=O)cc3)CC2)cc1C (centres unmarked) [Compound 285]	< 31.6 nM
COC(=O)c1ccc(CNC(=O)C(c2ccccc2)N2CCN(c3ccc(-n4ccn(C(C)C)c4=O)c(C)c3)CC2)cc1C (centres unmarked) [Compound 286]	31.6 to 316 nM
COC(=O)c1ccc(CNC(=O)C(c2ccccc2)N2CCN(c3ccc(-n4cnn(C(C)c5ccccc5)c4=O)cc3)CC2)cc1C (centres unmarked) [Compound 287]	316 to 3160 nM
COC(=O)c1ccc(CNC(=O)C(c2ccccc2)N2CCC(c3ccc(-n4cnn(C(C)C)c4=O)cc3)CC2)cc1C (centres unmarked) [Compound 288]	31.6 to 316 nM
COC(=O)c1ccccc1CNC(=O)C(c1ccccc1)N1CCN(c2ccc(-n3ccn(C(C)C)c3=O)c(C)c2)CC1 (centres unmarked) [Compound 289]	31.6 to 316 nM
COC(=O)c1cccc(CNC(=O)C(c2ccccc2)N2CCN(c3ccc(-n4ccn(C(C)C)c4=O)c(C)c3)CC2)c1 (centres unmarked) [Compound 290]	316 to 3160 nM
COC(=O)c1cccc(CNC(=O)C(c2ccccc2)N2CCN(c3ccc(-n4ccn(C(C)c5ccccc5)c4=O)cc3)CC2)c1 (centres unmarked) [Compound 291]	316 to 3160 nM
COC(=O)c1ccc(CNC(=O)C(c2ccccc2)N2CCN(c3ccc(-n4ccn(C(C)C)c4=O)c(C)c3)CC2)cc1 (centres unmarked) [Compound 293]	316 to 3160 nM
COC(=O)c1ccc(CNC(=O)C(c2ccccc2)N2CCN(c3ccc(-n4cnn(C(C)c5ccccc5)c4=O)cc3)CC2)cc1 (centres unmarked) [Compound 294]	316 to 3160 nM

Structure (SMILES)	IC50
COC(=O)c1ccc(CNC(=O)C(c2ccccc2)N2CCC(c3ccc(-n4cnn(C(C)C)c4=O)cc3)CC2)cc1 (centres unmarked) [Compound 295]	31.6 to 316 nM
CCOC(=O)C(c1ccccc1)N1CCC(c2ccc(-n3ccn([C@H](C)C4CCCCC4)c3=O)cc2)CC1 (some centres unmarked) [Compound 296]	31.6 to 316 nM
CCOC(=O)C(c1ccccc1)N1CCN(c2ccc(-n3ccn([C@H](C)c4ccccc4)c3=O)c(C)c2)CC1 (some centres unmarked) [Compound 297]	31.6 to 316 nM
CC(C)n1ncn(-c2ccc(N3CCN(C(C(=O)Nc4ccc5c(c4)CCN(C(=O)OC(C)(C)C)C5)c4ccccc4)CC3)cc2)c1=O (centres unmarked) [Compound 305]	31.6 to 316 nM
CC(C)n1ncn(-c2ccc(N3CCN(C(C(=O)Nc4ccc5c(c4)CC(NC(=O)OC(C)(C)C)C5)c4ccccc4)CC3)cc2)c1=O (centres unmarked) [Compound 306]	< 31.6 nM
COC(=O)C(c1ccc(C)cc1)N1CCN(c2ccc(-n3cnn(C(C)c4ccccc4)c3=O)cc2)CC1 (centres unmarked) [Compound 318]	316 to 3160 nM
COC(=O)C(c1ccccc1Cl)N1CCC(c2ccc(-n3cnn(C(C)C)c3=O)cc2)CC1 (centres unmarked) [Compound 319]	31.6 to 316 nM
COC(=O)C(c1cccc(Cl)c1)N1CCC(c2ccc(-n3cnn(C(C)C)c3=O)cc2)CC1 (centres unmarked) [Compound 320]	316 to 3160 nM
COC(=O)C(c1ccc(Cl)cc1)N1CCC(c2ccc(-n3cnn(C(C)C)c3=O)cc2)CC1 (centres unmarked) [Compound 321]	316 to 3160 nM
COC(=O)C(c1ccc(Cl)cc1Cl)N1CCC(c2ccc(-n3cnn(C(C)C)c3=O)cc2)CC1 (centres unmarked) [Compound 322]	31.6 to 316 nM
COC(=O)C(c1ccc(Br)cc1)N1CCC(c2ccc(-n3cnn(C(C)C)c3=O)cc2)CC1 (centres unmarked) [Compound 323]	316 to 3160 nM
COC(=O)C(c1ccc(C)cc1)N1CCC(c2ccc(-n3cnn(C(C)C)c3=O)cc2)CC1 (centres unmarked) [Compound 324]	316 to 3160 nM
COC(=O)C(c1ccccc1Cl)N1CCN(c2ccc(-n3cnn(C(C)C)c3=O)cc2)CC1 (centres unmarked) [Compound 325]	31.6 to 316 nM
COC(=O)C(c1cccc(Cl)c1)N1CCN(c2ccc(-n3cnn(C(C)C)c3=O)cc2)CC1 (centres unmarked) [Compound 326]	316 to 3160 nM
COC(=O)C(c1ccc(Cl)cc1)N1CCN(c2ccc(-n3cnn(C(C)C)c3=O)cc2)CC1 (centres unmarked) [Compound 327]	316 to 3160 nM
COC(=O)C(c1ccc(Cl)cc1Cl)N1CCN(c2ccc(-n3cnn(C(C)C)c3=O)cc2)CC1 (centres unmarked) [Compound 328]	31.6 to 316 nM
COC(=O)C(c1ccc(Br)cc1)N1CCN(c2ccc(-n3cnn(C(C)C)c3=O)cc2)CC1 (centres unmarked) [Compound 329]	316 to 3160 nM
COC(=O)C(c1ccc(C)cc1)N1CCN(c2ccc(-n3cnn(C(C)C)c3=O)cc2)CC1 (centres unmarked) [Compound 330]	316 to 3160 nM
CCOC(=O)C(c1ccccc1)N1CCN(c2ccc(-n3ccn(C(C)c4cccc(F)c4F)c3=O)cc2)CC1 (centres unmarked) [Compound 332]	31.6 to 316 nM
CCOC(=O)C(c1ccccc1)N1CCN(c2ccc(-n3ccn(C(C)c4cc(F)ccc4F)c3=O)cc2)CC1 (centres unmarked) [Compound 334]	31.6 to 316 nM
CCOC(=O)C(c1ccccc1)N1CCN(c2ccc(-n3nc4cccc(C)n4c3=O)cc2)CC1 (centres unmarked) [Compound 347]	316 to 3160 nM
CCOC(=O)c1cc(NC(=O)C(c2ccccc2)N2CCC(c3ccc(-n4cnn(C(C)C)c4=O)cc3)CC2)ccc1C (centres unmarked) [Compound 349]	< 31.6 nM

Structure (SMILES)	IC50
CCOC(=O)C(c1ccccc1)N1CCN(c2ccc(-n3cnn(C(C)c4ccccc4F)c3=O)cc2)CC1 (centres unmarked) [Compound 350]	31.6 to 316 nM
CCOC(=O)CC(NC(=O)C(c1ccccc1)N1CCC(c2ccc(-n3cnn(C(C)C)c3=O)cc2)CC1)c1ccc2c(c1)OCO2 (centres unmarked) [Compound 351]	316 to 3160 nM
COC(=O)CCc1csc(NC(=O)C(c2ccccc2)N2CCC(c3ccc(-n4cnn(C(C)C)c4=O)cc3)CC2)n1 (centres unmarked) [Compound 352]	316 to 3160 nM
COC(=O)c1[nH]c2ccc(C)cc2c1NC(=O)C(c1ccccc1)N1CCC(c2ccc(-n3cnn(C(C)C)c3=O)cc2)CC1 (centres unmarked) [Compound 353]	31.6 to 316 nM
COC(=O)c1ccc2nc(NC(=O)C(c3ccccc3)N3CCC(c4ccc(-n5cnn(C(C)C)c5=O)cc4)CC3)sc2c1 (centres unmarked) [Compound 354]	316 to 3160 nM
CCOC(=O)c1csc(NC(=O)C(c2ccccc2)N2CCN(c3ccc(-n4cnn(C(C)C)c4=O)cc3)CC2)n1 (centres unmarked) [Compound 357]	316 to 3160 nM
CCOC(=O)CC(NC(=O)C(c1ccccc1)N1CCN(c2ccc(-n3ccn(C(C)C)c3=O)cc2)CC1)c1ccc2c(c1)OCO2 (centres unmarked) [Compound 358]	316 to 3160 nM
CCOC(=O)CC(NC(=O)C(c1ccccc1)N1CCN(c2ccc(N3CCN(C(C)C)C3=O)cc2)CC1)c1ccc2c(c1)OCO2 (centres unmarked) [Compound 359]	316 to 3160 nM
CCOC(=O)c1cc(NC(=O)C(c2ccccc2)C2CCN(c3ccc(-n4cnn(C(C)c5ccccc5)c4=O)cc3)CC2)ccc1C (centres unmarked) [Compound 369]	31.6 to 316 nM
CCOC(=O)c1cc(NC(=O)C(c2ccccc2)C2CCN(c3ccc(-n4cnn(C(C)C)c4=O)cc3)CC2)ccc1C (centres unmarked) [Compound 370]	31.6 to 316 nM
CCOC(=O)c1cc(NC(=O)CC2CCN(c3ccc(-n4cnn(C(C)c5ccccc5)c4=O)cc3)CC2)ccc1C (centres unmarked) [Compound 371]	31.6 to 316 nM
CCOC(=O)c1cc(NC(=O)CC2CCN(c3ccc(-n4cnn(C(C)C)c4=O)cc3)CC2)ccc1C [Compound 372]	316 to 3160 nM
CCOC(=O)c1cc(NC(=O)C(Cc2ccccc2)C2CCN(c3ccc(-n4cnn(C(C)c5ccccc5)c4=O)cc3)CC2)ccc1C (centres unmarked) [Compound 373]	316 to 3160 nM
CCOC(=O)c1cc(NC(=O)C(Cc2ccccc2)C2CCN(c3ccc(-n4cnn(C(C)C)c4=O)cc3)CC2)ccc1C (centres unmarked) [Compound 374]	316 to 3160 nM
CCOC(=O)c1ccc(CNC(=O)C(c2ccccc2)C2CCN(c3ccc(-n4cnn(C(C)c5ccccc5)c4=O)cc3)CC2)cc1C (centres unmarked) [Compound 375]	31.6 to 316 nM
CCOC(=O)c1ccc(CNC(=O)C(c2ccccc2)C2CCN(c3ccc(-n4cnn(C(C)C)c4=O)cc3)CC2)cc1C (centres unmarked) [Compound 376]	31.6 to 316 nM
CCOC(=O)c1ccc(CNC(=O)CC2CCN(c3ccc(-n4cnn(C(C)c5ccccc5)c4=O)cc3)CC2)cc1C (centres unmarked) [Compound 377]	31.6 to 316 nM
CCOC(=O)c1ccc(CNC(=O)CC2CCN(c3ccc(-n4cnn(C(C)C)c4=O)cc3)CC2)cc1C [Compound 378]	31.6 to 316 nM
CCOC(=O)c1ccc(CNC(=O)C(Cc2ccccc2)C2CCN(c3ccc(-n4cnn(C(C)c5ccccc5)c4=O)cc3)CC2)cc1C (centres unmarked) [Compound 379]	316 to 3160 nM
CCOC(=O)c1ccc(CNC(=O)C(Cc2ccccc2)C2CCN(c3ccc(-n4cnn(C(C)C)c4=O)cc3)CC2)cc1C (centres unmarked) [Compound 380]	316 to 3160 nM
CCOC(=O)c1cc(CNC(=O)C(c2ccccc2)C2CCN(c3ccc(-n4cnn(C(C)c5ccccc5)c4=O)cc3)CC2)ccc1C (centres unmarked) [Compound 381]	< 31.6 nM

Source: patent publication US7504400B2, “MTP inhibiting aryl piperydines or piperazines substituted with 5-membered heterocycles” (Janssen Pharmaceutica N.V., priority 2004, dated 2009)
